Assay results as given in patent US9102697B2, “Trioxacarcins and uses thereof” (President and Fellows of Harvard College, priority 2010, dated 2015).

Test system: self-complementary duplex 12-mer d(AATTACGTAATT) (SEQ ID NO: 1)
Test: DNA alkylation detected by non-denaturing DNA-gel electrophoresis with in-gel fluorescence
Format: biochemical
Details: for alkylation / modification of the DNA duplex: 12-mer duplex with single central G residue, gel in-gel fluorescence and LC-MS; for fluorescent complex with the oligonucleotide detected: two-hour reaction at 23 °C
Description: Two independent techniques were used to evaluate the reactivity of the synthesized trioxacarcins towards d(AATTACGTAATT) (SEQ ID NO: 1). The first technique involved detecting alkylated DNA oligonucleotides by in-gel fluorescence with non-denaturing DNA-gel electrophoresis. The second technique involved detecting alkylated DNA oligonucleotides using a liquid chromatography-mass spectrometry method.
We began the DNA-alkylation studies by evaluating the activity of DC-45-A2 towards the self-complementary 12-mer d(AATTACGTAATT) (SEQ ID NO: 1) in pH 7 phosphate buffer at different concentrations (FIG. 10). The concentration of the oligonucleotide was held constant at 100 μM while DC-45-A2 was used at five different concentrations ranging from 1 μM to 1000 μM (lanes 4-8) in five separate reactions. At the highest concentrations of DC-45-A2 (500 μM and 1000 μM), a second and distinct fluorescent complex was observed by in-gel fluorescence. […] Chem. 390, 1139 (2008). After incubation for 3 h at 23° C., aliquots of the reactions mixtures were loaded onto a 20% crosslinked polyacrylamide gel. After electrolution, the gels were visualized using an alpha imager, first by irradiating the gel at 302 nm to image fluorescent species in the gel (in-gel fluorescence) and then by treating the gel with ethidium bromide and again irradiating at 302 nm to image fluorescent species in the treated gel. The fluorescence quantum efficiency of an ethidium bromide molecule increases 20- to 25-fold upon intercalation into duplex DNA: J.-B. Le Pecq, C. Paoletti, Anal. Biochem. 17, 100 (1966).
Next, we compared the reactivity of DC-45-A2 to both iso-DC-45-A2 and dideoxy-DC-45-A2 towards the same oligonucleotide in three separate alkylation experiments (FIG. 11).
Having noted the apparent differential reactivity between DC-45-A2 and dideoxy-DC-45-A2, we performed an experiment to visualize the formation of the fluorescent complex at different reaction times (FIG. 12). The reaction of the oligonucleotide with DC-45-A2 reached an approximate maximum of fluorescence intensity between 5 and 10 h, while the reaction of the oligonucleotide with dideoxy-DC-45-A2 reached a maximum fluorescence intensity between 1 and 4 h.
Seven vials (designated vials 1 and vials 3-8) were loaded with alkylation buffer (86.7 μL, see above for preparation). A solution of duplex oligonucleotide d(AATTACGTAATT) (SEQ ID NO: 1) (1.07 mM [concentration of the DNA duplex] in alkylation buffer [see above for preparation], 9.34 μL, 10 nmol, 1 equiv) was added to vials 3-8. Dimethylsulfoxide was added in the following amounts to vials 3-7 (vial 3, 4.00 μL; vial 4, 3.80 μL; vial 5, 3.00 μL; vials 6-7, 2.00 μL). Solutions of DC-45-A2 in dimethylsulfoxide was added to vial 1 and vials 4-8 at the following concentrations and amounts (vial 1, 25 mM solution of DC-45-A2, 4.00 μL; vial 4, 5 mM solution of DC-45-A2, 0.20 μL; vial 5, 5 mM solution of DC-45-A2, 1.00 μL; vial 6, 5 mM solution of D-45-A2, 2.00 μL; vial 7, 25 mM solution of DC-45-A2, 2.00 μL; vial 8, 25 mM solution of DC-45-A2, 4.00 μL). The samples were vortexed, then rotated end-over-end at 23° C. After 2 h, four vials (designated vials 9-12) were prepared containing the following (vial 9, an aliquot of the solution from vial 3 [18.0 μL], DNase I enzyme solution [2.00 μL, Invitrogen 18047-019]; vial 10, an aliquot of the solution from vial 3 [20.0 μL]; vial 11, an aliquot of the solution from vial 5 [18.0 μL], DNase I enzyme [2.00 μL, Invitrogen 18047-019]; vial 12, an aliquot of the solution from vial 5 [20.0 μL]. Vials 9 and 11 were rotated end-over-end at 23° C. for 1 h. Vials 10 and 12 were heated at 95° C. for 15 min. To a final vial (designated vial 2) was added a 10-bp DNA ladder (4 μL, Invitrogen 10821-015) and alkylation buffer (16.0 μL). Vials 2 and 9-12 were diluted with loading buffer (5.00 μL, see above for preparation). A 20-μL aliquot was removed from vials 1 and 3-8. […]

COc1c2c(c(O)c3c4c(c(C)cc13)[C@H]1O[C@]3(C(OC)OC)O[C@H]1[C@](O)(O4)[C@@]31CO1)C(=O)[C@@H](O)C[C@@H]2O [iso-DC-45-A2, 11,12,13,15-tetraepi-DC-45-A2]
alkylation / modification of the DNA duplex (23 °C): unreactive | alkylation / modification of the DNA duplex (23 °C, listed as Iso-DC-45-A2): not observed to modify

DC-45-A2
alkylation / modification of the DNA duplex (23 °C): found to modify | alkylation / modification of the DNA duplex (23 °C, listed as 1): readily alkylated | rate of alkylation of the DNA duplex (23 °C): half life of hours | fluorescent complex with the oligonucleotide detected (compound and DNA 100 μM): clearly detected | stability of the fluorescent DNA complex to heating (reaction mixture heated at 95 °C for 15 min): destroyed

Dideoxy-DC-45-A2
alkylation / modification of the DNA duplex (23 °C): found to modify | rate of alkylation of the DNA duplex (23 °C): within minutes | efficiency of alkylation of the DNA duplex (23 °C, compared with DC-45-A2): apparently greater efficiency | signal intensity of the fluorescent complex (compound and DNA 100 μM, 2 h at 23 °C, compared with DC-45-A2): more intense signal | fluorescent complex with the oligonucleotide detected (compound and DNA 100 μM): clearly detected
